# Test results reported in patent publication US20240254114A1, “PREPARATION OF FUSED AZOLE DERIVATIVES AS NOVEL DIACYLGLYCERIDE 0-ACYLTRANSFERASE 2 INHIBITORS” (Merck Sharp & Dohme LLC, priority 2022, published 2024).
# Target: human DGAT2 (Homo sapiens (Human), UniProt Q96PD7)
# Assay: DGAT2 Enzymatic Activity Assay
# Settings: Human DGAT2 IC50, hDGAT2 membrane prep from Sf-9 cells; 13C18-triolein product by LC/MS/MS
# Procedure: Sf-9 insect cells were maintained in Grace's insect cell culture medium with 10% heated-inactivated fetal bovine serum, 1% Pluronic F-68 and 0.14 μg/ml Kanamycine sulfate at 27° C. in a shaker incubator. After infection with untagged baculovirus expressing human DGAT2 (hDGAT2) at multiplicity of infection (MOI) 3 for 48 hours, cells were harvested. Cell pellets were suspended in buffer containing 10 mM Tris-HCl pH 7.5, 1 mM EDTA, 250 mM sucrose and Complete Protease Inhibitor Cocktail (Sigma Aldrich), and sonicated on ice. Cell debris were removed by centrifugation at 2000×g for 15 minutes. Membrane fractions were isolated by ultracentrifugation (100,000×g), resuspended in the same buffer, and frozen (−80° C.) for later use. The protein concentration was determined with the Pierce™ BCA Protein Assay Kit (Thermo Fisher Scientific).
# LC/MS/MS analyses were performed using Thermal Fisher's LX4-TSQ Vantage system. This system consists of an Agilent binary high-performance liquid chromatography (HPLC) pump and a TSQ Vantage triple quadrupole MS/MS instrument. For each sample, 2 μL samples from the top organic layer of in-plate liquid-liquid extraction were injected onto a Thermo Betabasic C4 column (2.1 mm×20 mm, 5 μm particle size). The samples were then eluted using the following conditions; mobile phase: Isopropanol: acetonitrile/10 mM ammonium formate=50/35/15 (v/v/v), flow rate: 0.8 mL/min, temperature: 25° C. Data was acquired in positive mode using a heated electrospray ionization (HESI) interface. […] The peak area was integrated by Xcalibur Quan software. The ratio between the ^13C18 triolein generated in the reaction and spiked in internal standard ^13C21-triolein was used to generate percentage inhibition and IC50 values. […] DGAT2 activity was determined by measuring the amount of enzymatic product ^13C18-triolein (^13C-1,2,3-Tri(cis-9-octadecenoyl)glycerol) using the membrane prep mentioned above. The assay was carried out in ABgene 384-well assay plates in a final volume of 25 μL at rt.
# Sequence of human DGAT2 (Q96PD7 whole entry): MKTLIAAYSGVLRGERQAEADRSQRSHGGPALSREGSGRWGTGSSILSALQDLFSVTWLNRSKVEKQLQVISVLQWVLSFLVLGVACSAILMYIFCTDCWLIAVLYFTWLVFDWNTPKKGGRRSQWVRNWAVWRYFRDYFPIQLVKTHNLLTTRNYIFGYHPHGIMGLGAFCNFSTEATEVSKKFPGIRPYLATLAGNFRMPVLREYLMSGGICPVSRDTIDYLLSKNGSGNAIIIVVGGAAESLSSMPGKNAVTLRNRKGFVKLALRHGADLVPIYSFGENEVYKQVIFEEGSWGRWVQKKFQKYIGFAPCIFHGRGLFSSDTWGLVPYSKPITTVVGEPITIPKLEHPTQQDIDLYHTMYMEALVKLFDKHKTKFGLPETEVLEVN
row,IC50,SMILES
1,941 nM,"CC1(NC(=O)c2nc3cc(Oc4ncccc4OCC(F)(F)F)ccc3o2)CCS(=O)(=O)CC1 [Example 10, N-(4-methyl-1,1-dioxidotetrahydro-2H-thiopyran-4-yl)-5-((3-(2,2,2-trifluoroethoxy)pyridin-2-yl)oxy)benzo[d]oxazole-2-carboxamide]"
2,1.4 nM,"Cn1c(C(=O)NC2(C)CCS(=O)(=O)CC2)nc2ccc(Oc3ncc(F)cc3OCC(F)F)nc21 [Example 30, 5-((3-(2,2-Difluoroethoxy)-5-fluoropyridin-2-yl)oxy)-3-methyl-N-(4-methyl-1,1-dioxidotetrahydro-2H-thiopyran-4-yl)-3H-imidazo[4,5-b]pyridine-2-carboxamide]"

# Further lines, the molecule ahead of its results:
row,SMILES,IC50
1,"Cn1c(C(=O)NC2(C)CCS(=O)(=O)CC2)nc2ccc(Oc3ncc(F)cc3OCC(F)(F)F)nc21 [Example 29, 5-((5-Fluoro-3-(2,2,2-trifluoroethoxy)pyridin-2-yl)oxy)-3-methyl-N-(4-methyl-1,1-dioxidotetrahydro-2H-thiopyran-4-yl)-3H-imidazo[4,5-b]pyridine-2-carboxamide]",12 nM
2,"CC(C)n1c(C(=O)NC2(C)CCS(=O)(=O)CC2)nc2nc(Oc3ncc(Cl)cc3OCC(F)F)ccc21 [Example 51, 5-((5-chloro-3-(2,2-difluoroethoxy)pyridin-2-yl)oxy)-1-isopropyl-N-(4-methyl-1,1-dioxidotetrahydro-2H-thiopyran-4-yl)-1H-imidazo[4,5-b]pyridine-2-carboxamide]",533 nM
3,"Cn1c(C(=O)NC2(C)CCS(=O)(=O)CC2)nc2ccc(OCC(CC(F)(F)F)OC(F)F)nc21 (single isomer, unassigned) [Example 62a, 5-[2-(difluoromethoxy)-4,4,4-trifluoro-butoxy]-3-methyl-N-(4-methyl-1,1-dioxo-thian-4-yl)imidazo[4,5-b]pyridine-2-carboxamide]",1330 nM
4,"Cn1c(C(=O)NC2(C)CCS(=O)(=O)CC2)nc2ccc(OCc3ncc(Cl)cc3OCC(F)F)nc21 [Example 58, 5-((5-Chloro-3-(2,2-difluoroethoxy)pyridin-2-yl)methoxy)-3-methyl-N-(4-methyl-1,1-dioxidotetrahydro-2H-thiopyran-4-yl)-3H-imidazo[4,5-b]pyridine-2-carboxamide]",2.3 nM
5,"Cn1c(C(=O)NC2(C)CCS(=O)(=O)CC2)nc2ncc(Oc3ncc(Cl)cc3OCC(F)F)cc21 [Example 82, 6-[[5-Chloro-3-(2,2-difluoroethoxy)-2-pyridyl]oxy]-1-methyl-N-(4-methyl-1,1-dioxo-thian-4-yl)imidazo[4,5-b]pyridine-2-carboxamide]",1.2 nM
6,"Cn1c(C(=O)NC2(C)CCS(=O)(=O)CC2)nc2ncc(Oc3ncc(Cl)cc3OCC(F)F)nc21 [Example 90, 6-((5-Chloro-3-(2,2-difluoroethoxy)pyridin-2-yl)oxy)-1-methyl-N-(4-methyl-1,1-dioxidotetrahydro-2H-thiopyran-4-yl)-1H-imidazo[4,5-b]pyrazine-2-carboxamide]",4.1 nM
7,"Cn1c(C(=O)NC2(C)CCS(=O)(=O)CC2)nc2cnc(OCc3ncc(Cl)cc3OCC(F)F)cc21 [Example 80, 6-((5-Chloro-3-(2,2-difluoroethoxy)pyridin-2-yl)methoxy)-1-methyl-N-(4-methyl-1,1-dioxidotetrahydro-2H-thiopyran-4-yl)-1H-imidazo[4,5-c]pyridine-2-carboxamide]",30 nM

# Same assay, conditions: read-out: Human DGAT2 IC50; hDGAT2 membrane prep from Sf-9 cells; 13C18-triolein product by LC/MS/MS
row,IC50,SMILES
1,24 nM,"Cn1c(C(=O)NC2(C)CCS(=O)(=O)CC2)nc2cnc(Oc3ncc(Cl)cc3OCC(C)(F)F)cc21 [Example 67, 6-[[5-chloro-3-(2,2-difluoropropoxy)-2-pyridyl]oxy]-1-methyl-N-(4-methyl-1,1-dioxo-thian-4-yl)imidazo[4,5-c]pyridine-2-carboxamide]"
2,29 nM,"CC1(NC(=O)c2nc3ccc(Oc4ncc(Cl)cc4OCC(F)(F)F)cc3o2)CCC(F)(F)CC1 [Example 9, 6-[[5-chloro-3-(2,2,2-trifluoroethoxy)-2-pyridyl]oxy]-N-(4,4-difluoro-1-methyl-cyclohexyl)-1,3-benzoxazole-2-carboxamide]"
3,> 9990 nM,"Cn1c(C(=O)NC2(C)CS(=O)(=O)C2)nc2ccc(Oc3ncccc3OCC(F)(F)F)nc21 [Example 35, 3-methyl-N-(3-methyl-1,1-dioxidothietan-3-yl)-5-((3-(2,2,2-trifluoroethoxy)pyridin-2-yl)oxy)-3H-imidazo[4,5-b]pyridine-2-carboxamide]"
4,20 nM,"Cn1c(C(=O)NC2(C)CCS(=O)(=O)CC2)nc2ccc(Oc3nccnc3OCC(F)F)nc21 [Example 38, 5-[3-(2,2-difluoroethoxy)pyrazin-2-yl]oxy-3-methyl-N-(4-methyl-1,1-dioxo-thian-4-yl)imidazo[4,5-b]pyridine-2-carboxamide]"

# More lines, now with the values behind:
row,SMILES,IC50
1,"Cc1cnc(Oc2cc3c(cn2)nc(C(=O)NC2(C)CCS(=O)(=O)CC2)n3C)c(OCC(F)F)c1 [Example 73, 6-[[3-(2,2-difluoroethoxy)-5-methyl-2-pyridyl]oxy]-1-methyl-N-(4-methyl-1,1-dioxo-thian-4-yl)imidazo[4,5-c]pyridine-2-carboxamide]",9.1 nM
2,"CCC(COc1ccc2nc(C(=O)NC3(C)CCS(=O)(=O)CC3)n(C)c2n1)OCC(C)(F)F (stereo not drawn) [Example 61, 5-[2-(2,2-difluoropropoxy)butoxy]-3-methyl-N-(4-methyl-1,1-dioxo-thian-4-yl)imidazo[4,5-b]pyridine-2-carboxamide]",44 nM
3,"Cc1c(Oc2ncc(F)cc2OCC(F)(F)F)ncc2nc(C(=O)NC3(C)CCS(=O)(=O)CC3)n(C)c12 [Example 79, 6-[[5-fluoro-3-(2,2,2-trifluoroethoxy)-2-pyridyl]oxy]-1,7-dimethyl-N-(4-methyl-1,1-dioxo-thian-4-yl)imidazo[4,5-c]pyridine-2-carboxamide]",58 nM
4,"O=C(N[C@H]1CCOC1)c1nc2ccc(Oc3ncc(Cl)cc3OCC(F)(F)F)cc2o1 [Example 5, 6-[[5-chloro-3-(2,2,2-trifluoroethoxy)-2-pyridyl]oxy]-N-[(3S)-tetrahydrofuran-3-yl]-1,3-benzoxazole-2-carboxamide]",1810 nM
5,"Cc1cc2nc(C(=O)NC3(C)CCS(=O)(=O)CC3)n(C)c2nc1Oc1ncc(F)cc1OCC(F)F [Example 48, 5-[[3-(2,2-difluoroethoxy)-5-fluoro-2-pyridyl]oxy]-3,6-dimethyl-N-(4-methyl-1,1-dioxo-thian-4-yl)imidazo[4,5-b]pyridine-2-carboxamide]",6.3 nM
6,"CO[C@]1(C(F)(F)F)C[C@H](NC(=O)c2nc3ccc(Oc4ncc(Cl)cc4OCC(F)(F)F)cc3o2)C1 [Example 6, 6-[[5-chloro-3-(2,2,2-trifluoroethoxy)-2-pyridyl]oxy]-N-[3-methoxy-3-(trifluoromethyl)cyclobutyl]-1,3-benzoxazole-2-carboxamide]",900 nM
7,"CC1(NC(=O)c2nc3ccc(Oc4ncc(Cl)cc4OCC(F)(F)F)cc3o2)CCS(=O)(=O)CC1 [Example 3, 6-[[5-chloro-3-(2,2,2-trifluoroethoxy)-2-pyridyl]oxy]-N-(4-methyl-1,1-dioxo-thian-4-yl)-1,3-benzoxazole-2-carboxamide]",63 nM
8,"Cn1c(C(=O)NC2(C)CCS(=O)(=O)CC2)nc2cnc(Oc3nccnc3OCC(F)(F)F)cc21 [Example 69, 1-methyl-N-(4-methyl-1,1-dioxo-thian-4-yl)-6-[3-(2,2,2-trifluoroethoxy)pyrazin-2-yl]oxy-imidazo[4,5-c]pyridine-2-carboxamide]",105 nM
